Experimental findings from the Bradley open melting point set (2014) are described below.

On to `Clc1cc(Br)ccc1I` [4-bromo-2-chloro-1-iodobenzene], for which the melting point – broadly, the temperature, or range, at which the solid turns liquid – is 34 °C. `NC(=O)c1ccccc1Cl` [o-chlorobenzamide] showed a melting point of 143 °C. `O=[N+]([O-])c1cc[n+]([O-])cc1Br` [3-bromo-4-nitropyridine n-oxide] displayed a melting point of 153 °C. `CCCCOCCO` [2-Butoxyethanol] showed a melting point of -75 °C.

Molecule `CC1=CCC2CC1C2(C)C` (centres undefined) [a-pinene] came in with a melting point of -62 °C. As for `ClCc1ccc(Cl)cc1Cl` [2,4-dichlorobenzyl chloride], the melting point is -3 °C. `CCCCN` [Butan-1-amine]: the melting point is -49 °C. As to `CC(C)(C)OC(=O)N1CCS[C@@H]1C(=O)O` [(R)-3-boc-thiazolidine-2-carboxylic acid], the melting point was determined as 92 °C. Take `COC(OC)OC` [trimethyl orthoformate]: the melting point was -53 °C. For `COc1ccccc1N1CCNCC1` [1-(2-methoxyphenyl)piperazine], the melting point was 37 °C.

On to `O=[N+]([O-])c1ccccc1` [nitrobenzene], for which the melting point was 6 °C. The figure for `CCCCC=O` [Pentanal] is -91.5 °C. With `Clc1nc2ccccc2s1` [2-chlorobenzothiazole] the figure was 32 °C; with `O=C1C[C@@H]2OCC=C3CN4CC[C@]56c7ccccc7N1[C@H]5[C@H]2[C@H]3C[C@H]46` [strychnine], 280 °C; with `COc1ccc(C(=O)CCC(=O)O)cc1OC` [3-(3,4-dimethoxybenzoyl)propionic acid], 160 °C.

The molecule `O=C(O)Cc1ccc(Br)cc1` [4-bromophenylacetic acid] returned a melting point of 117 °C. With `CC(C)C(=O)c1ccccc1` [isobutyrophenone] the figure was 1 °C; with `OB(O)c1ccc(OCc2ccccc2)cc1` [4-benzyloxybenzeneboronic acid], 196 °C. With `CCC1(CC)C(=O)NC(=O)NC1=O` [barbital], the melting point turned out to be 190 °C. With `Cc1ccc2c(c1)-c1c(cc3c(c1-c1ccccc1)C(=O)CC(C)(C)C3)CO2`, the melting point was 199 °C. With `N#Cc1ccc(O)c([N+](=O)[O-])c1` [4-Hydroxy-3-nitrobenzonitrile] the figure was 141 °C; with `N#CC(c1ccccc1[N+](=O)[O-])c1ccccc1[N+](=O)[O-]` [bis(2-nitrophenyl)acetonitrile], 110 °C. In turn, `O=C(O)COC(=O)Cc1ccccc1Nc1c(Cl)cccc1Cl` [aceclofenac] came in with a melting point of 149 °C. `Cc1cccc(N)c1` [m-toluidine] registered a melting point of -30 °C. `c1ccc2cc(C3CNCCN3)ccc2c1` (centres undefined) [2-(2-naphthyl)piperazine] registered a melting point of 102 °C.

Turning to `C1=CCCC1` [cyclopentene], the melting point is -135 °C. `CCOCCOC(C)=O` [2-ethoxyethyl_acetate] had a melting point of -61 °C. `CCC#N` [ethyl_cyanide] had a melting point of -93 °C. The molecule `N#CCc1ccc(Cl)cc1` [4-chlorobenzyl_cyanide] gave a melting point of 31 °C. In the case of `CCC1(O)CCC2(C)C(CCC3C4CCC(=O)C4(C)CCC32)C1` (centres undefined) [3-ethyl-3-hydroxyandrostan-17-one], the melting point came to 115 °C. The figure for `COC(=O)c1ccc(C=O)cc1` [methyl 4-formylbenzoate] is 61 °C. `CC(C)c1cccc(C(C)C)c1` [m-diisopropylbenzene] registered a melting point of -63 °C. On to `Nc1ccc(NC(=O)c2ccc(N)cc2)cc1` [4,4'-diaminobenzanilide], for which the melting point is 201 °C. The molecule `N#CCCCl` [3-chloropropionitrile] had a melting point of -50 °C. In turn, `c1ccc(NNc2ccccc2)cc1` [hydrazobenzene] showed a melting point of 125 °C. In the case of `O=C(O)c1cnn(-c2ccc([N+](=O)[O-])cc2)c1C(F)(F)F`, the melting point is 201 °C. For the molecule `O=[N+]([O-])c1cc(Cl)[n+]([O-])c(Cl)c1` [2,6-dichloro-4-nitropyridine n-oxide], the melting point amounted to 178 °C. With `C[C@H]1CC[C@@H](C)CC1` [cis-1,4-dimethylcyclohexane] the figure was -87 °C; with `CCc1cccc(C)c1` [3-ethyltoluene], -96 °C.

As for `Oc1cccc(Cl)c1Cl` [2,3-Dichlorophenol], the melting point was found to be 56 °C. With `O=C1CNC(=O)N1` [hydantoin] the figure was 222 °C. Turning to `Cc1cc(CCN2CCN(c3cccc(Cl)c3)CC2)n[nH]1` [mepiprazole], the melting point came out at 106 °C.

For the molecule `COC(=O)c1ccc(OC)cc1O` [methyl 2-hydroxy-4-methoxybenzoate], the melting point amounted to 48 °C. With `CCOC(=O)c1ccc(NC(=O)C(F)(F)C(F)(F)C(F)(F)C(F)(F)C(F)(F)C(F)(F)C(F)(F)C(F)(F)F)cc1` the figure was 136 °C; with `CC(C)(S)[C@@H](N)C(=O)O` [Penicillamine], 198 °C. `CCCCCCCCCCCCOP(=O)(O)O` [mono-n-dodecyl phosphate] registered a melting point of 42 °C.

Take `C=CCCC(=O)O` [4-pentenoic acid]: the melting point is -22 °C. For the molecule `O=C(O)c1nn(Cc2ccc(Cl)cc2Cl)c2ccccc12` [lonidamine], the melting point is 207 °C. On to `O=C(c1ccccc1)c1cccs1` [Phenyl(2-thienyl)methanone], for which the melting point was determined as 57 °C. Take `O=C1Nc2ccc(Cl)cc2C(c2ccccc2Cl)=NC1O` (centres undefined) [Lorazepam]: the melting point is 167 °C. Turning to `CCCN(CC1CC1)c1c([N+](=O)[O-])cc(C(F)(F)F)cc1[N+](=O)[O-]` [profluralin], the melting point stood at 32.5 °C.

Molecule `O=C1CCCN1` [2-pyrrolidinone] displayed a melting point of 24 °C. In turn, `OC[C@H]1O[C@@](CO)(O[C@H]2O[C@H](CO)[C@@H](O)[C@H](O)[C@H]2O)[C@@H](O)[C@@H]1O` [sucrose] gave a melting point of 188 °C. Regarding `CCC1(c2ccccc2)C(=O)NCNC1=O` [Primidone], the melting point was determined as 282 °C. Consider `O=C(O)c1cc(=O)[nH]c(=O)[nH]1` [orotic acid], for which the melting point was determined as 346 °C. `Cc1ccc(-c2ccc(/C=C/C(=O)c3ccccc3)o2)cc1` [(2E)-3-[5-(4-Methylphenyl)-2-furyl]-1-phenylprop-2-en-1-one] came in with a melting point of 101 °C. Consider `CCCCCl` [1-chlorobutane], for which the melting point was -123 °C. `Nc1cc(C(F)(F)F)ccc1[N+](=O)[O-]` [2-nitro-5-(trifluoromethyl)aniline] had a melting point of 100 °C. The molecule `O=C(O)c1cc(-c2ccc(F)cc2F)ccc1O` [Diflunisal] showed a melting point of 216 °C. Take `O=[N+]([O-])c1ccc(Cl)cc1` [1-chloro-4-nitrobenzene]: the melting point came out at 84 °C. With `CN(C)C(=O)Nc1ccc(Cl)c(Cl)c1` [3-(3,4-dichlorophenyl)-1,1-dimethylurea], the melting point turned out to be 158 °C.

For `CC1(C)CCC2=C1CCC1C2CCC2CC(=O)CCC21C` (centres undefined) [10,17,17-trimethylgon-13-en-3-one], the melting point came to 135 °C. Consider `COc1ccc([N+](=O)[O-])cc1` [1-Methoxy-4-nitrobenzene], for which the melting point is 48 °C. Regarding `BBBBBBBBBB` [decaborane], the melting point came out at 101 °C.
